Laboratory results published in ChEMBL document CHEMBL4376865, “Discovery and Characterization of 1H-1,2,3-Triazole Derivatives as Novel Prostanoid EP4 Receptor Antagonists for Cancer Immunotherapy” (J Med Chem, 2020).

How the values were obtained:
[1] = target: T1, CYP1A2 (Homo sapiens, UniProt P05177); test: Inhibition of CYP1A2 in human liver microsomes at 20 uM using phenacetin as substrate incubated for 30 mins by HPLC analysis relative to control; format: ADME; details: probe phenacetin
T1 sequence (P05177 whole entry): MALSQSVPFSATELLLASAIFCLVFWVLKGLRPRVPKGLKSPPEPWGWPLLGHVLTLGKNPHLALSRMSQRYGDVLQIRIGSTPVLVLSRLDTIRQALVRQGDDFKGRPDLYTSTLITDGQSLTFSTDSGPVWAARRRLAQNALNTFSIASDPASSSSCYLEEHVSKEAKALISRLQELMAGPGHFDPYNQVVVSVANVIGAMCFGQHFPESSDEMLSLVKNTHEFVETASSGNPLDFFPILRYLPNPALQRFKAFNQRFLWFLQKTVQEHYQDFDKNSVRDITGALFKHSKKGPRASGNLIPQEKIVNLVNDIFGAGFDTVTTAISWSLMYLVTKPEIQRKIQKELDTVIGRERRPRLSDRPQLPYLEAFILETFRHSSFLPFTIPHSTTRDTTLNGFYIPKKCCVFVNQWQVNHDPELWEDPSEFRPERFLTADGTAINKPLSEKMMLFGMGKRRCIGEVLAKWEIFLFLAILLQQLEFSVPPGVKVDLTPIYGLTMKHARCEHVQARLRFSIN

[2] = in vitro; details: CD1, mouse, liver microsomes
[3] = target: CYP2E1 (Homo sapiens, UniProt P05181); test: Inhibition of CYP2E1 in human liver microsomes at 20 uM using chlorzoxazone as substrate incubated for 60 mins by HPLC analysis relative to control; format: ADME; details: probe chlorzoxazone
[4] = target: CYP2D6 (Homo sapiens, UniProt P10635); test: Inhibition of CYP2D6 in human liver microsomes at 20 uM using dextromethorphan as substrate incubated for 60 mins by HPLC analysis relative to control; format: ADME; details: probe dextromethorphan
[5] = target: Prostaglandin E2 receptor EP4 subtype (Mus musculus, UniProt P32240); test: Antagonist activity at mouse EP4 expressed in CHO cells coexpressing G16-alpha assessed as intracellular calcium flux preincubated for 15 mins followed by addition of PGE2 by calcium flux assay; format: functional, cell-based
[6] = target: T2, Prostaglandin E2 receptor EP4 subtype (Homo sapiens, UniProt P35408); test: Inhibition of human EP4 transfected in human HEK293 cells co transfected with CRE-luciferase assessed as reduction in PGE2-induced luciferase expression incubated for 24 hrs by luciferase reporter gene Assay
[7] = in vivo; details: BALB/c, mouse, po, 5 mg/kg
Description: AUC (0 to infinity) in BALB/c mouse at 5 mg/kg, po measured upto 24 hrs by LC-MS/MS analysis

[8] = target: T2, Prostaglandin E2 receptor EP4 subtype; test: Inhibition of human EP4 transfected in human HEK293 cells assessed as reduction in PGE2-induced cAMP level incubated for 15 mins followed by PGE2 stimulation and measured every 2 mins for 30 mins by GloSensor cAMP Assay
[9] = in vivo; details: BALB/c, mouse, po, 5 mg/kg; remark: listed apart in the source
Description: Cmax in BALB/c mouse at 5 mg/kg, po measured upto 24 hrs by LC-MS/MS analysis

[10] = test system: CT26; test: Antitumor activity against mouse CT26 cells xenografted in BALB/c mouse assessed as tumor growth inhibition at 50 mg/kg, po administerd daily and measured after two weeks; details: 336 h, read-out: TGI
[11] = target: T2, Prostaglandin E2 receptor EP4 subtype
Description: Antagonist activity at human EP4 expressed in CHO cells coexpressing G16-alpha assessed as intracellular calcium flux preincubated for 15 mins followed by addition of PGE2 by calcium flux assay

[12] = target: T3, Prostaglandin E2 receptor EP1 subtype (Homo sapiens, UniProt P34995); test: Antagonist activity at human EP1 expressed in CHO cells coexpressing G16-alpha assessed as intracellular calcium flux preincubated for 15 mins followed by addition of PGE2 by calcium flux assay; format: functional, cell-based
T3 sequence (P34995 whole entry): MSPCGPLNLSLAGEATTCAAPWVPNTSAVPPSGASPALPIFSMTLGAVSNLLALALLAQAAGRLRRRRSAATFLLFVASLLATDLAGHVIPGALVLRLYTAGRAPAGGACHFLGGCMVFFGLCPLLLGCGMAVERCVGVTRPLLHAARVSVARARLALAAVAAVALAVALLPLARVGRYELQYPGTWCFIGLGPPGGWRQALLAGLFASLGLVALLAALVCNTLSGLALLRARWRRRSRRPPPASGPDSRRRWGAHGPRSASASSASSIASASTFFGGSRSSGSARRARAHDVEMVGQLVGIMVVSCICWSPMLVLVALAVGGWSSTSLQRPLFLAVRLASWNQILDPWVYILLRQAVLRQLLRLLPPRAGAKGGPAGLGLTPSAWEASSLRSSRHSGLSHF

[13] = target: Cytochrome P450 3A4 (Homo sapiens, UniProt P08684); test: Inhibition of CYP3A4 in human liver microsomes at 20 uM using testosterone as substrate incubated for 60 mins by HPLC analysis; format: ADME; details: 1 h
[14] = Half life in BALB/c mouse at 1 mg/kg, iv measured upto 24 hrs by LC-MS/MS analysis; details: in vivo
[15] = Half life in BALB/c mouse at 5 mg/kg, po measured upto 24 hrs by LC-MS/MS analysis; details: in vivo
[16] = Volume of distribution at steady state in BALB/c mouse at 1 mg/kg, iv measured upto 24 hrs by LC-MS/MS analysis; details: in vivo
[17] = Metabolic stability in human liver microsomes assessed as compound remaining at 10 uM incubated for 1 hr
[18] = target: T4, Prostaglandin E2 receptor EP3 subtype (Homo sapiens, UniProt P43115)
T4 sequence (P43115 whole entry): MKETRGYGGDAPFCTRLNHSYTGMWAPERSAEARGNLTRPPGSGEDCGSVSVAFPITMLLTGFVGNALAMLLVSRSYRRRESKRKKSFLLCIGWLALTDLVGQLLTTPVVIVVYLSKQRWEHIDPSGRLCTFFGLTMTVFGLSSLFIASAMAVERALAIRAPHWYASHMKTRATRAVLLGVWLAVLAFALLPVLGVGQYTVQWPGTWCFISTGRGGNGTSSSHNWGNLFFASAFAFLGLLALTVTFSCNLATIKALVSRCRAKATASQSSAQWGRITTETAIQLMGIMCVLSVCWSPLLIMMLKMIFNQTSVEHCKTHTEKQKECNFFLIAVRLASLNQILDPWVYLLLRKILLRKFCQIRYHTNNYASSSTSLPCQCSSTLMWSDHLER
Description: Antagonist activity at human EP3 expressed in CHO cells coexpressing G16-alpha assessed as intracellular calcium flux preincubated for 15 mins followed by addition of PGE2 by calcium flux assay

T2 sequence (P35408 whole entry): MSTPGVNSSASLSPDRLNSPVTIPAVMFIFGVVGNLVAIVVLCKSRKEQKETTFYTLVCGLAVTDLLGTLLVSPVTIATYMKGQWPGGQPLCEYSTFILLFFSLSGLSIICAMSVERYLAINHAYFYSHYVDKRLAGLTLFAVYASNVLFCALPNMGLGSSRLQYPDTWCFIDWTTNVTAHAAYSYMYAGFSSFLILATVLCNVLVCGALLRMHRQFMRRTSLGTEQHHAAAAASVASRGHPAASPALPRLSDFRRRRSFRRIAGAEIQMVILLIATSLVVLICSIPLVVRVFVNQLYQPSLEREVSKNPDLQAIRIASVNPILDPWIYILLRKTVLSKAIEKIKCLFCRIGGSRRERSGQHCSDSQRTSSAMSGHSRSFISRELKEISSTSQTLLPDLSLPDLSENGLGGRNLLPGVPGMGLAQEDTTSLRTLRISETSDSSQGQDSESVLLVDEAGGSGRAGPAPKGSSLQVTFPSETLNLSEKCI
Chain of Cytochrome P450 3A4 (P08684 whole entry): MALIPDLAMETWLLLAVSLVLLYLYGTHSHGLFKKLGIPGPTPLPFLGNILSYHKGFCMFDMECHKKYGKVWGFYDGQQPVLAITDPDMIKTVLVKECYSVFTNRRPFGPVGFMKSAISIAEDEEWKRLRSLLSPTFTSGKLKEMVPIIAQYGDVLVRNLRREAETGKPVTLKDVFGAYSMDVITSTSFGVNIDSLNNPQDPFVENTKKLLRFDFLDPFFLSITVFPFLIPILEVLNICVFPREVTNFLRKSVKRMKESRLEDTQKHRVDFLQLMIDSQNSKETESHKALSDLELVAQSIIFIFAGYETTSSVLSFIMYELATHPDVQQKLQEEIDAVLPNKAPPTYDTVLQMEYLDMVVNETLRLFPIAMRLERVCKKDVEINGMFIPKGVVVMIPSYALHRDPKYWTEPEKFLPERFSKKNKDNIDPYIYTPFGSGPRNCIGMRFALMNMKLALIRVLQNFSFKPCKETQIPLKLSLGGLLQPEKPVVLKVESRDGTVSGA
Chain of CYP2E1 (P05181 whole entry): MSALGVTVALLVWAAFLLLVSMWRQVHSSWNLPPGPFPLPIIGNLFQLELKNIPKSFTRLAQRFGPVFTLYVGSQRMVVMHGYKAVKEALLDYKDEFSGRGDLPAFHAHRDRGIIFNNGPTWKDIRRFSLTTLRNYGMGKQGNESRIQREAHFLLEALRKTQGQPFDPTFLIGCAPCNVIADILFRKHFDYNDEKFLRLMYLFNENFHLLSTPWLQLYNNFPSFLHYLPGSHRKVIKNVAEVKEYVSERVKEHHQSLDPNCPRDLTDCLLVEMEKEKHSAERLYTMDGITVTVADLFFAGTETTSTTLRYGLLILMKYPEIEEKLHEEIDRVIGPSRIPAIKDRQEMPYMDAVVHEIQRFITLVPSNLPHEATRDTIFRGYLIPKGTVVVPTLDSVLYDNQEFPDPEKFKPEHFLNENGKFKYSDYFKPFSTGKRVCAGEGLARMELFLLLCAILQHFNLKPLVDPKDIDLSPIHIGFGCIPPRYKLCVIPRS
Chain of CYP2D6 (P10635 whole entry): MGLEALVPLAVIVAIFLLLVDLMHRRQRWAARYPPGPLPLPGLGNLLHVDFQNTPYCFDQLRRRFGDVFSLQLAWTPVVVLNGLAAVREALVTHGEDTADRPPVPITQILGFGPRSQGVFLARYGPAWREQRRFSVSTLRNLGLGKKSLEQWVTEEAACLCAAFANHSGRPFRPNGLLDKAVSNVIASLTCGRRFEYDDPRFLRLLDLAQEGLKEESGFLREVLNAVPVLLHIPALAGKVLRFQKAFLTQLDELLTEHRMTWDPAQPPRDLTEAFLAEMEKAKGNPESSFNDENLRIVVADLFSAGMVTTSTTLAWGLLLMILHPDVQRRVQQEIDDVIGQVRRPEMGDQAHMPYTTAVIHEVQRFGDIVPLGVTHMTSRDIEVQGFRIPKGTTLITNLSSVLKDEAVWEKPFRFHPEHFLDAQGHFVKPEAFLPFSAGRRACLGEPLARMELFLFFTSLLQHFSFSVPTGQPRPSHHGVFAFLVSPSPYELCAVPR
Chain of Prostaglandin E2 receptor EP4 subtype (Mus musculus, UniProt P32240) (P32240 whole entry): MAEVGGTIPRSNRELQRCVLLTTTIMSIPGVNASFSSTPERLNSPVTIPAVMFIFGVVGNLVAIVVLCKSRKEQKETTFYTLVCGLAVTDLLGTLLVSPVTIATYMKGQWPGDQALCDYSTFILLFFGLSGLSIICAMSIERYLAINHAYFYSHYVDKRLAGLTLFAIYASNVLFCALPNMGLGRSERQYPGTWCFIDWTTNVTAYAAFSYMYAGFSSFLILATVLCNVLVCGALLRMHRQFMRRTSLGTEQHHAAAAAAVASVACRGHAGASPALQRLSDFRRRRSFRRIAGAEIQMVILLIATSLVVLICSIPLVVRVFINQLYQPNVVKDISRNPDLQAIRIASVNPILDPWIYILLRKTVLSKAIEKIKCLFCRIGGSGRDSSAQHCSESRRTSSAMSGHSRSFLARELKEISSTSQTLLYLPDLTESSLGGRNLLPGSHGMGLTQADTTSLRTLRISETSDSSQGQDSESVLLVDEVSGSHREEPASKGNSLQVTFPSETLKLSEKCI

With C/C=C/c1nnn(Cc2ccc(C(F)(F)F)cc2)c1C(=O)N[C@@H](C)c1ccc(C(=O)O)cc1 the inhibition at 0.5 h, 20 µM [1] was 27%, the half-life at 1 h, 10 µM [2] was > 2.42 h and the inhibition at 1 h, 20 µM [3] was 66%. For the same compound, the inhibition at 1 h, 20 µM [4] was 23%, the IC50 [5] was 16.2 nM and the IC50 [6] was 5.2 nM. It also gave an AUC(0-inf) at 24 h [7] of 1240 ng·h/mL, an IC50 [8] of 18.7 nM and a Kb [8] of 5.62 nM. The Cmax at 24 h [9] was 194 ng/mL, the inhibition in vivo at 50 mg/kg [10] was 54.7% and the IC50 [11] was 6.1 nM. For the same compound, the IC50 [12] was > 10000 nM, the “inhibition (INH)” value [13] was “Not Active” and the half-life at 24 h [14] was 4.1 h. It also gave a half-life at 24 h [15] of 4.7 h, a Vd at 24 h [16] of 4.4 L/kg and a remaining at 1 h, 10 µM [17] of 100%. The IC50 [18] was > 10000 nM.
